How the values were obtained:
[1] = tested on: murine leukaemia P 388/ADR 10; test: Evaluation of the increase in cytotoxicity of adriamycin on the line P 388/ADR-10 in vitro (reversion factor); assay type: cell-based; conditions: adriamycin, P 388/ADR-10, 48 h, TOX = toxic
Protocol: In this study, the cytotoxicity of adriamycin was measured in the absence and in the presence of the reversing compound.
The compounds tested for their capacity to reverse MDR are added at the same time as the cytotoxic agent. The cells are then incubated for 48 hours.

[2] = tested on: Chinese Hamster Pulmonary Line DC-3F/AD; test: Increase in the cytotoxicity of actinomycin D on the Chinese hamster pulmonary line DC-3F/AD; assay type: cell-based; conditions: 4 days;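 note: DC-3F/AD is an extremely resistant cell line whose resistance factor exceeds 10,000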
Excerpt: The cytotoxic agent used was actinomycin D.
Line DC-3F/AD is an extremely resistant line. Its resistance factor is higher than 10,000.

[3] = tested on: line DC-3F/AD; test: Flow cytometry, increase in fluorescence of ADR on the line DC-3F/AD; assay type: cell-based, Chinese Hamster; conditions: ADR 50 μM, 5 h
Protocol: (§1) By measuring that fluorescence it is possible to obtain a relative measurement of the intracellular concentration of ADR.
(§2) […] After 5 hours' incubation, the intracellular uptake of adriamycin was evaluated by FCM.
(§3) The analysis of each of the samples was carried out on a total of 10,000 cells at a speed of 1000 cells/sec.
(§4) The results were presented in the form of linear histograms of the intracellular ADR fluorescence.
(§5) Expression of the Results
(§6) For each of the histograms, the channel mean fluorescence was determined by the apparatus information system. For all experiments:
(§7) A negative control (cells without ADR) fixed the autofluorescence threshold.
(§8) A positive control (cells with ADR) determined the MEAN value=MN1.
(§9) The "test" tubes (cells with ADR and with compound) were used to determine, for each of the compounds and at each of the concentrations, the MEAN values=MN2.
(§10) The results are expressed in the form of variations from the mean fluorescence obtained for each of the "test" tubes (MN2) in relation to the mean fluorescence obtained with the […] (MNl) : VAR-MEAN=MN2 -MN1. The parameter expressed is thus the increase in the fluorescence of adriamycin in the presence of the tested compounds.

[4] = tested on: line P 388/ADR 10; test: Flow cytometry, increase in fluorescence of ADR on the line P 388/ADR 10; assay type: cell-based, murine; conditions: ADR 50 μM, 5 h
Protocol: as §1, §2, §3, §4, §5, §6, §7, §8, §9, §10

| SMILES | Reversion Factor (RF) ([1]; compound 2.5 μM) | Reversion Factor (RF) ([1]; compound 5 μM) | Reversion Factor (RF) ([1]; compound 10 μM) | Reversion Factor (RF) ([2]; compound 5 μM) | Reversion Factor (RF) ([2]; compound 10 μM) | Reversion Factor (RF) ([2]; compound 20 μM) | Increase in fluorescence of ADR (VAR-MEAN = MN2 - MN1) ([3]; compound 2 μM) | Increase in fluorescence of ADR (VAR-MEAN = MN2 - MN1) ([3]; compound 5 μM) | Increase in fluorescence of ADR (VAR-MEAN = MN2 - MN1) ([3]; compound 10 μM) | Increase in fluorescence of ADR (VAR-MEAN = MN2 - MN1) ([3]; compound 20 μM) | Increase in fluorescence of ADR (VAR-MEAN = MN2 - MN1) ([4]; compound 2 μM) | Increase in fluorescence of ADR (VAR-MEAN = MN2 - MN1) ([4]; compound 5 μM) | Increase in fluorescence of ADR (VAR-MEAN = MN2 - MN1) ([4]; compound 10 μM) | Increase in fluorescence of ADR (VAR-MEAN = MN2 - MN1) ([4]; compound 20 μM) | Reversion Factor (RF) ([2]; compound 2.5 μM) |
| --- | --- | --- | --- | --- | --- | --- | --- | --- | --- | --- | --- | --- | --- | --- | --- |
| CCCCc1oc2ccccc2c1C(=O)c1cc(I)c(OCCN(CC)CC)c(I)c1 [AMIODARONE, reference compound] | 37.7 | 104.7 | TOX | 298 | 388 | TOX | 8.80 | 16.65 | 21.55 | 26.35 | 33.40 | 65.25 | 76.33 | 95.85 | – |
| C=CCNc1nc(NCC=C)nc(NC2CCN(CC(c3ccccc3)c3ccccc3)CC2)n1 [Example 3, 4-[4,6-bis(allylamino)-2-s-triazinyl]amino-1-(2,2diphenylethyl)piperidine] | 39 | 70 | 134.8 | 104 | 240 | – | 8.0 | 19.9 | 21.6 | 19.3 | 29.9 | 46.2 | 66.0 | 73.1 | 38 |
| C=CCNc1nc(NCC=C)nc(N2CCC(N(C)CC(c3ccccc3)c3ccccc3)CC2)n1 [Example 4, 1-[4,6-bis(allylamino)-2-s-triazinyl)-4-[N-(2,2-di-phenylethyl)-N-methylamino]piperidine] | 34.7 | 32.3 | 171.1 | 218 | 1256 | – | 12.3 | 24.1 | 41.9 | 49.0 | – | – | – | – | – |
| C=CCNc1nc(NCC=C)nc(N2CCC(NCC(c3ccccc3)c3ccccc3)CC2)n1 [Example 5, 1-[4,6-bis(allylamino)-2-s-triazinyl]-4-(2,2-diphenylethylamino)piperidine] | 100 | 189 | 277.4 | 658 | 1504 | TOX | 15.5 | 31.3 | 34.65 | 37.9 | 45.25 | 60.7 | 79.47 | 76.25 | – |
| C=CCNc1nc(NCC=C)nc(N2CCC(NCCC(c3ccccc3)c3ccccc3)CC2)n1 [Example 6, 1-[4,6-bis(allylamino)-2-s-triazinyl]-4-(3,3-diphenylpropylamino)-piperidine] | 54.4 | TOX | TOX | 220 | TOX | TOX | 3.9 | 21.5 | 29.75 | TOX | 32.9 | 60.1 | 55.8 | TOX | < 16.5 |
| C=CCNc1nc(NCCC)nc(N2CCC(NCC(c3ccccc3)c3ccccc3)CC2)n1 [Example 7, 1-(4-propylamino-6-allylamino-2-s-triazinyl)-4-(2,2-diphenylethylamino)piperidine] | 102.8 | 135.6 | TOX | 992 | 2339 | – | 14.47 | 26.0 | 34.17 | 36.63 | 48.75 | 72.6 | 80.9 | 87.3 | – |
| C=CCNc1nc(NCCC)nc(N2CCC(NCCC(c3ccccc3)c3ccccc3)CC2)n1 [Example 8, 1-(4-propylamino-6-allylamino-2-s-triazinyl)-4-(3,3diphenylpropylamino)piperidine] | 75.9 | TOX | TOX | TOX | TOX | TOX | 4.5 | 17.85 | 27.15 | TOX | 38.9 | 60.1 | TOX | TOX | 16.5 |
| C=CCNc1nc(NCCC)nc(NC2CCN(CC(c3ccccc3)c3ccccc3)CC2)n1 [Example 11, 4-(4-allylamino-6-propylamino-2-s-triazinylamino)-1-(2,2-diphenylethyl)piperidine] | 87 | 65.2 | TOX | 281 | 926 | – | 12.6 | 18.9 | 29.9 | 40.5 | – | – | – | – | – |
| C=CCNc1nc(NCC=C)nc(N2CCC(NCCC(c3ccc(OC)c(OC)c3)c3ccc(OC)c(OC)c3)CC2)n1 [Example 12, 1-[4,6-bis(allylamino)-2-s-triazinyl]-4-[3,3-bis(3,4-dimethoxyphenyl)propylamino]piperidine] | 1.4 | 8 | TOX | < 16.5 | < 16.5 | – | 6.1 | 3.8 | 5.5 | 9.6 | – | – | – | – | – |
